Assay [1] deals with SMN2 minigene (full length SMN2 minigene mRNA containing SMN2 exon 7). The experiment in a line: SMN2 minigene mRNA splicing RT-qPCR assay in cultured cells. Format: cell-based, human. The conditions noted are these: Homo sapiens, HEK293-H; HEK293H cells stably transfected with SMN2-A minigene; 24 hours; 7-point concentration curve; 1.5-fold relative to vehicle-treated cells; read-out: EC1.5x for production of full length SMN2 mRNA. How it is done: The reverse transcription-quantitative PCR-based (RT-qPCR) assay is used to quantify the level of the full length SMN2 minigene mRNA containing SMN2 exon 7 in a HEK293H cell line stably transfected with said minigene and treated with a test compound.
Protocol. HEK293H cells stably transfected with the SMN2-A minigene construct described above (10,000 cells/well) are seeded in 200 μL of cell culture medium (DMEM plus 10% FBS, with 200 μg/mL hygromycin) in 96-well flat-bottom plates and the plate is immediately swirled to ensure proper dispersal of cells, forming an even monolayer of cells. Cells are allowed to attach for at least 4-6 hours. […] A solution of test compound (1 μL, 200× in DMSO) is added to each cell-containing well and the plate is incubated for 24 hours in a cell culture incubator (37° C., 5% CO2, 100% relative humidity). 2 replicates are prepared for each test compound concentration. The cells are then lysed in Cells-To-Ct lysis buffer and the lysate is stored at −80° C.
The combination of these three oligonucleotides detects only SMN1 or SMN2 minigenes (RT-qPCR) and will not detect endogenous SMN1 or SMN2 genes.
The SMN forward and reverse primers are used at final concentrations of 0.4 μM.
The SMN2-minigene GAPDH mix (15 μL total volume) is prepared by combining 7.5 μL of 2×RT-PCR buffer, 0.4 μL of 25×RT-PCR enzyme mix, 0.75 μL of 20×GAPDH primer-probe mix, 4.0075 μL of water, 2 μL of 10-fold diluted cell lysate, 0.06 μL of 100 μM SMN forward primer, 0.06 μL of 100 μM SMN reverse primer, and 0.225 μL of 100 μM SMN probe.
PCR is carried out at the following temperatures for the indicated time: Step 1: 48° C. (15 min); Step 2: 95° C. (10 min); Step 3: 95° C. (15 sec); Step 4: 60° C. (1 min); then repeat Steps 3 and 4 for a total of 40 cycles.
Each reaction mixture contains both SMN2-A minigene and GAPDH primers/probe sets (multiplex design), allowing simultaneous measurement of the levels of two transcripts.
Two SMN spliced products are generated from the SMN2 minigene. The first spliced product containing exon 7, corresponding to full length SMN2 mRNA, is called SMN2mini FL. The second one lacking exon 7 is called SMN2mini Δ7.
The amplification efficiency E is calculated from the slope of the amplification curve for SMN2mini FL and GAPDH individually. The abundances of SMN2mini FL and GAPDH are then calculated as […], where Ct is the threshold value for each amplicon. The abundance of SMN2mini FL is normalized to GAPDH abundance. The normalized SMN2mini FL abundance from test compound-treated samples is then divided by normalized SMN2mini FL abundance from vehicle-treated cells to determine the level of SMN2 FL mRNA relative to vehicle control.
An EC1.5x for production of full length SMN2 mRNA between >3 μM and ≤30 μM is indicated by one star (*), an EC1.5x between >1 μM and ≤3 μM is indicated by two stars (**), an EC1.5x between >0.3 μM and ≤1 μM is indicated by three stars (***), an EC1.5x between >0.1 μM and ≤0.3 μM is indicated by four stars (****) and an EC1.5x≤0.1 μM is indicated by five stars (*****).

Assay [2] concerns Smn protein. The experiment in a line: Smn protein assay in cultured cells (SMN HTRF). To be noted: 48 hours; for EC1.5x (concentration giving 1.5-fold Smn protein increase): SMA Type 1 patient fibroblast cells (GM03813), 7-point concentration curve, SMN HTRF, concentration producing 1.5 times Smn protein vs DMSO vehicle control, read-out: EC1.5x for Smn protein expression; for maximum fold (Fold) increase of Smn protein: SMA patient fibroblast cells, 7-point concentration data, fold increase relative to vehicle control (SMN HTRF). Format: cell-based, human. How it is done: The SMN HTRF (homogeneous time resolved fluorescence) assay is used to quantify the level of Smn protein in SMA patient fibroblast cells treated with test compounds.
Protocol. Cells are thawed and cultured in DMEM-10% FBS for 72 hours. Cells are trypsinized, counted and resuspended to a concentration of 25,000 cells/mL in DMEM-10% FBS. […] 1 μL of test compound solution is transferred to cell-containing wells and cells are incubated for 48 hours in a cell culture incubator (37° C., 5% CO2, 100% relative humidity). Triplicate samples are set up for each test compound concentration. After 48 hours, the supernatant is removed from the wells and 25 μL of the RIPA lysis buffer, containing protease inhibitors, is added to the wells and incubated with shaking at room temperature for 1 hour. 25 μL of the diluent is added and then 35 μL of the resulting lysate is transferred to a 384-well plate, where each well contains 5 μL of the antibody solution (1:100 dilution of anti-SMN d2 and anti-SMN kryptate in SMN reconstitution buffer). The plate is centrifuged for 1 minute to bring the solution to the bottom of the wells, then incubated overnight at room temperature. Fluorescence for each well of the plate at 665 nm and 620 nm is measured on an EnVision multilabel plate reader (Perkin-Elmer).
The normalized fluorescence signal is calculated for each sample, Blank and vehicle control well by dividing the signal at 665 nm by the signal at 620 nm. Normalizing the signal accounts for possible fluorescence quenching due to the matrix effect of the lysate. The ΔF value (a measurement of Smn protein abundance) for each sample well is calculated by subtracting the normalized average fluorescence for the Blank control wells from the normalized fluorescence for each sample well and then dividing this difference by the normalized average fluorescence for the Blank control wells. The resulting ΔF value for each sample well represents the Smn protein abundance from test compound-treated samples. The ΔF value for each sample well is divided by the ΔF value for the vehicle control wells to calculate the fold increase in Smn protein abundance relative to the vehicle control.
An EC1.5x for Smn protein expression between >3 μM and ≤10 μM is indicated by one star (*), an EC1.5x between >1 and ≤3 μM is indicated by two stars (**), an EC1.5x between >0.3 μM and ≤1 μM is indicated by three stars (***) and an EC1.5x≤0.3 μM is indicated by four stars (****).

Where a name gives a salt, the structure may show the parent alone. Bounds are passed on as bounds.

For the compound `Cc1cn2cc(-c3cc4ccc(N5CCN(C)CC5)cc4oc3=O)cc(F)c2n1` [Compound 982, 3-(8-fluoro-2-methylimidazo[1,2-a]pyridin-6-yl)-7-(4-methylpiperazin-1-yl)-2H-chromen-2-one], the EC (1.5-fold) in assay [1] was under 0.1 µM. In assay [2], the EC1.5x (concentration giving 1.5-fold Smn protein increase) is under 300 nM and the “maximum fold (Fold) increase of Smn protein” value (“maximum fold (Fold) increase” below) is reported as “***** (fold increase >1.65)”.
As for `Cc1cn2cc(-c3cc4ccc(N5CCN[C@@H](C)C5)cc4oc3=O)cc(F)c2n1` [Compound 984, 3-(8-fluoro-2-methylimidazo[1,2-a]pyridin-6-yl)-7-[(3S)-3-methylpiperazin-1-yl]-2H-chromen-2-one], the EC (1.5-fold) in assay [1] is under 0.1 µM. In assay [2], the EC1.5x (concentration giving 1.5-fold Smn protein increase) is under 300 nM and the “maximum fold (Fold) increase” value is recorded as “***** (fold increase >1.65)”.
As to `Cc1cn2cc(-c3cc4c(F)cc(N5CCN(C)[C@@H](C)C5)cc4oc3=O)nc2cn1` [Compound 659, 7-[(3S)-3,4-dimethylpiperazin-1-yl]-5-fluoro-3-(6-methylimidazo[1,2-a]pyrazin-2-yl)-2H-chromen-2-one], the EC (1.5-fold) in assay [1] was under 0.1 µM. Moreover, in assay [2], the EC1.5x (concentration giving 1.5-fold Smn protein increase) was under 300 nM; the “maximum fold (Fold) increase” value was “**** (fold increase between >1.5 and ≤1.65)”.
As for `Cc1cn2cc(-c3cc4ccc(N5CCN6C(=O)CCC6C5)cc4oc3=O)nc2c(C)n1` (stereo not shown) [Compound 973, 2-[3-(6,8-dimethylimidazo[1,2-a]pyrazin-2-yl)-2-oxo-2H-chromen-7-yl]hexahydropyrrolo[1,2-a]pyrazin-6(2H)-one], in assay [1], the EC (1.5-fold) lay within 3 to 30 µM. Moreover, in assay [2], the “maximum fold (Fold) increase” value is “* (maximum fold increase of ≤1.2)”.
In the case of `Cc1cn2cc(-c3cc4ccc(N5CC[C@@H](CN)C5)cc4oc3=O)nc2c(C)n1` [Compound 964, 7-[(3S)-3-(aminomethyl)pyrrolidin-1-yl]-3-(6,8-dimethylimidazo[1,2-a]pyrazin-2-yl)-2H-chromen-2-one], in assay [1], the EC (1.5-fold) was 0.1 to 0.3 µM. For the same compound, the “maximum fold (Fold) increase” value in assay [2] is “** (fold increase between >1.2 and ≤1.35)”.
With `CSc1nccn2cc(-c3cc4ccc(N5CCNCC5)cc4oc3=O)nc12` [Cpd 398, 3-[8-(methylsulfanyl)imidazo[1,2-a]pyrazin-2-yl]-7-(piperazin-1-yl)-2H-chromen-2-one], the EC (1.5-fold) in assay [1] lay within 1 to 3 µM. In assay [2], the “maximum fold (Fold) increase” value is reported as “* (maximum fold increase of ≤1.2)”.
The matching figures for `CC(=O)O.Cc1ccn2cc(-c3cc4ccc(N(C)C5CCN(Cc6ccccc6)C5)cc4oc3=O)nc2n1` (stereo not shown) [Compound 377, 7-[(1-benzylpyrrolidin-3-yl)(methyl)amino]-3-(7-methylimidazo[1,2-a]pyrimidin-2-yl)-2H-chromen-2-one acetate]: 0.3 to 1 µM and “* (maximum fold increase of ≤1.2)”.
Take `Cl.O=c1oc2cc(N3CCNCC3)ccc2cc1-c1nc2c(F)cccc2o1` [Compound 40, 3-(4-fluoro-1,3-benzoxazol-2-yl)-7-(piperazin-1-yl)-2H-chromen-2-one hydrochloride]: the EC (1.5-fold) in assay [1] is 1 to 3 µM. Also, the “maximum fold (Fold) increase” value in assay [2] was “** (fold increase between >1.2 and ≤1.35)”.
For the compound `Cc1nccc(-c2cc3ccc(N4CCN(C)CC4)cc3oc2=O)n1` [Compound 297, 7-(4-methylpiperazin-1-yl)-3-(2-methylpyrimidin-4-yl)-2H-chromen-2-one], the EC (1.5-fold) in assay [1] lay in the range of 3 to 30 µM. Besides, in assay [2], the “maximum fold (Fold) increase” value was “* (maximum fold increase of ≤1.2)”.
As to `CN(C)CCN(C)c1ccc2cc(-c3nc4ccccc4o3)c(=O)oc2c1` [Compound 49, 3-(1,3-benzoxazol-2-yl)-7-{[2-(dimethylamino)ethyl](methyl)amino}-2H-chromen-2-one], the EC (1.5-fold) in assay [1] was 3 to 30 µM. Also, the “maximum fold (Fold) increase” value in assay [2] is on record as “* (maximum fold increase of ≤1.2)”.
Regarding `Cc1cn2cc(-c3cc4ccc(N5CCN(C)CC5)cc4oc3=O)nc2cn1` [Compound 568, 3-(6-methylimidazo[1,2-a]pyrazin-2-yl)-7-(4-methylpiperazin-1-yl)-2H-chromen-2-one], the EC (1.5-fold) in assay [1] was under 0.1 µM. Besides, in assay [2], the EC1.5x (concentration giving 1.5-fold Smn protein increase) is under 300 nM and the “maximum fold (Fold) increase” value is “***** (fold increase >1.65)”.
With `Cc1cn2cc(-c3cc4ccc(N5C[C@@H]6CCCN(C)[C@@H]6C5)cc4oc3=O)nc2c(C)n1` [Compound 795, 3-(6,8-dimethylimidazo[1,2-a]pyrazin-2-yl)-7-[(4aS,7aS)-1-methyloctahydro-6H-pyrrolo[3,4-b]pyridin-6-yl]-2H-chromen-2-one], in assay [1], the EC (1.5-fold) is under 0.1 µM. Moreover, in assay [2], the EC1.5x (concentration giving 1.5-fold Smn protein increase) was under 300 nM; the “maximum fold (Fold) increase” value is “**** (fold increase between >1.5 and ≤1.65)”.
Take `Cc1ccn2cc(-c3cc4ccc(O[C@@H]5CCNC5)cc4oc3=O)nc2c1` [Compound 323, 3-(7-methylimidazo[1,2-a]pyridin-2-yl)-7-[(3R)-pyirolidin-3-yloxy]-2H-chromen-2-one hydrochloride (1:2)]: the EC (1.5-fold) in assay [1] was 0.3 to 1 µM. The “maximum fold (Fold) increase” value in assay [2] is “** (fold increase between >1.2 and ≤1.35)”.
Turning to `CN1CCN(c2ccc3cc(-c4ccnc(C5CC5)n4)c(=O)oc3c2)CC1` [Compound 298, 3-(2-cyclopropylpyrimidin-4-yl)-7-(4-methylpiperazin-1-yl)-2H-chromen-2-one], in assay [1], the EC (1.5-fold) is 1 to 3 µM. For the same compound, in assay [2], the “maximum fold (Fold) increase” value is given as “* (maximum fold increase of ≤1.2)”.
`Cc1nc2ccc(-c3cc4ccc(C5=CCNCC5)cc4oc3=O)nn2c1C1=CCNCC1` [Cpd 845, 3-[2-methyl-3-(1,2,3,6-tetrahydropyridin-4-yl)imidazo[1,2-b]pyridazin-6-yl]-7-(1,2,3,6-tetrahydropyridin-4-yl)-2H-chromen-2-one]: the “maximum fold (Fold) increase” value in assay [2] is listed as “* (maximum fold increase of ≤1.2)”.
